Reference: ChEMBL document CHEMBL4507315 (2021)

Key:
[1] = test system: Receptor-type tyrosine-protein kinase FLT3 (Homo sapiens), P36888 [D835Y]; conditions: Compound concentration 100.0 nM
[2] = molecular target: Sodium-dependent serotonin transporter (Homo sapiens) (UniProt P31645); conditions: Compound concentration 10.0 uM
[3] = molecular target: Serine/threonine-protein kinase TAO2 (Homo sapiens) (UniProt Q9UL54); conditions: Compound concentration 100.0 nM
[4] = test system: Hepatocyte growth factor receptor (Homo sapiens), P08581 [M1250T]; conditions: Compound concentration 100.0 nM
[5] = molecular target: Serine/threonine-protein kinase pim-1 (Homo sapiens) (UniProt P11309); conditions: Compound concentration 100.0 nM
[6] = molecular target: Serine/threonine-protein kinase PAK 4 (Homo sapiens) (UniProt O96013); conditions: Compound concentration 100.0 nM
[7] = molecular target: Mitogen-activated protein kinase kinase kinase kinase 2 (Homo sapiens) (UniProt Q12851); conditions: Compound concentration 100.0 nM
Chain of Mitogen-activated protein kinase kinase kinase kinase 2 (Homo sapiens) (Q12851 whole entry): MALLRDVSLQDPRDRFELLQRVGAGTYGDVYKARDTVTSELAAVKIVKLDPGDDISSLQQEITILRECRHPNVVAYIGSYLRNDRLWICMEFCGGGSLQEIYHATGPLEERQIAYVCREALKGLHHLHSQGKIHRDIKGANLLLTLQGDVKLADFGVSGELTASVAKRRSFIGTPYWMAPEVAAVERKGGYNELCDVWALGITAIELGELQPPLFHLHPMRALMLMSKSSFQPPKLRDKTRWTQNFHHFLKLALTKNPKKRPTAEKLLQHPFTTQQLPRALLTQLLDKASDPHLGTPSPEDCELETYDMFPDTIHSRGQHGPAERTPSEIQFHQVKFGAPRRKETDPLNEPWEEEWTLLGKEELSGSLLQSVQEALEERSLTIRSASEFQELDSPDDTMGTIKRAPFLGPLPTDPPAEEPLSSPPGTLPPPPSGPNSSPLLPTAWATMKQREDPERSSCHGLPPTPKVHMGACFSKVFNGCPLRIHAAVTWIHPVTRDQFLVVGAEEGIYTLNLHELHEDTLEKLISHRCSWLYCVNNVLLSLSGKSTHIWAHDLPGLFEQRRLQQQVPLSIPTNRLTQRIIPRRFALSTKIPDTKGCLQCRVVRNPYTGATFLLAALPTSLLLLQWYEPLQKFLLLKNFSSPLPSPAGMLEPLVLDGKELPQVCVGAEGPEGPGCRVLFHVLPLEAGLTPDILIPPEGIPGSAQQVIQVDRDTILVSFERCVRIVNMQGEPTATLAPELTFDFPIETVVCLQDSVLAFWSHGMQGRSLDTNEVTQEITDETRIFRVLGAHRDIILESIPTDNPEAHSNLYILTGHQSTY

[8] = molecular target: Receptor-interacting serine/threonine-protein kinase 4 (Homo sapiens) (UniProt P57078); conditions: Compound concentration 100.0 nM
[9] = molecular target: Leucine-rich repeat serine/threonine-protein kinase 2 (Homo sapiens) (UniProt Q5S007); conditions: Compound concentration 100.0 nM
[10] = molecular target: Protein-tyrosine kinase 2-beta (Homo sapiens) (UniProt Q14289); conditions: Compound concentration 100.0 nM
[11] = molecular target: Serine/threonine-protein kinase 17A (Homo sapiens) (UniProt Q9UEE5); conditions: Compound concentration 100.0 nM
[12] = molecular target: Dual specificity mitogen-activated protein kinase kinase 2 (Homo sapiens) (UniProt P36507); conditions: Compound concentration 100.0 nM
[13] = molecular target: Phosphatidylinositol 4-phosphate 5-kinase type-1 gamma (Homo sapiens) (UniProt O60331); conditions: Compound concentration 100.0 nM
[14] = molecular target: Serine/threonine-protein kinase Sgk3 (Homo sapiens) (UniProt Q96BR1); conditions: Compound concentration 100.0 nM
[15] = molecular target: Aurora kinase B (Homo sapiens) (UniProt Q96GD4); conditions: Compound concentration 100.0 nM
Chain of Aurora kinase B (Homo sapiens) (Q96GD4 whole entry): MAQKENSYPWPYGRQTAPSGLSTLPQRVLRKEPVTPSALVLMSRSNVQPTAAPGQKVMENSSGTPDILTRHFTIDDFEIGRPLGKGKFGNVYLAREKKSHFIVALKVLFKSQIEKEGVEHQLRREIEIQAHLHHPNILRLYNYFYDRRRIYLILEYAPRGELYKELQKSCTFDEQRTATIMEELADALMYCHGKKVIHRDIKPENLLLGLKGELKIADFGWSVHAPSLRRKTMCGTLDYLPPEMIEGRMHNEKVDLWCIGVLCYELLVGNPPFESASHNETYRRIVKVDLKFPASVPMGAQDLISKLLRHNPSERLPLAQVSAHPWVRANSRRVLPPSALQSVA

[16] = molecular target: cGMP-dependent protein kinase 2 (Homo sapiens) (UniProt Q13237); conditions: Compound concentration 100.0 nM
[17] = test system: Epidermal growth factor receptor (Homo sapiens), P00533 [T790M]; conditions: Compound concentration 100.0 nM
[18] = molecular target: Phosphatidylinositol 4,5-bisphosphate 3-kinase catalytic subunit beta isoform (Homo sapiens) (UniProt P42338); conditions: Compound concentration 100.0 nM
[19] = test system: Phosphatidylinositol 4,5-bisphosphate 3-kinase catalytic subunit alpha isoform (Homo sapiens), P42336 [H1047L]; conditions: Compound concentration 100.0 nM
[20] = molecular target: Serine/threonine-protein kinase TAO3 (Homo sapiens) (UniProt Q9H2K8); conditions: Compound concentration 100.0 nM
[21] = molecular target: Phosphatidylinositol 4,5-bisphosphate 3-kinase catalytic subunit alpha isoform (Homo sapiens) (UniProt P42336); conditions: Compound concentration 100.0 nM
[22] = molecular target: Cytoplasmic tyrosine-protein kinase BMX (Homo sapiens) (UniProt P51813); conditions: Compound concentration 100.0 nM
[23] = molecular target: Mitogen-activated protein kinase kinase kinase 2 (Homo sapiens) (UniProt Q9Y2U5); conditions: Compound concentration 100.0 nM
Chain of Mitogen-activated protein kinase kinase kinase 2 (Homo sapiens) (Q9Y2U5 whole entry): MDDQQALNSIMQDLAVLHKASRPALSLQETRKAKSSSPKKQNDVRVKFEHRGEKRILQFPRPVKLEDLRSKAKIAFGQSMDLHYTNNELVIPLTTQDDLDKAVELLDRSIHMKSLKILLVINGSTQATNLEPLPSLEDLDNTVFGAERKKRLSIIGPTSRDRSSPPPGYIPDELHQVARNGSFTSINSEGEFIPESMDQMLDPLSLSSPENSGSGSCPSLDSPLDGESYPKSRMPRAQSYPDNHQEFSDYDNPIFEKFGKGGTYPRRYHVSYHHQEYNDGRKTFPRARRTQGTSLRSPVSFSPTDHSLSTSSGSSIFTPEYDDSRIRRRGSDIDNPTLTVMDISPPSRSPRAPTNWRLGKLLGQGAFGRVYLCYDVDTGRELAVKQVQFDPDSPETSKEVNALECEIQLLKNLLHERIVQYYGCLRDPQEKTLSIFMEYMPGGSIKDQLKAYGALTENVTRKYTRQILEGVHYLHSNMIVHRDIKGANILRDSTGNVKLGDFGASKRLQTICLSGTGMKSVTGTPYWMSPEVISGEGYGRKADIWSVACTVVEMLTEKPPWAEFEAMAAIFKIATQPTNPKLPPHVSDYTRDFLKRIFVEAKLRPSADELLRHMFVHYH

[24] = molecular target: Mitogen-activated protein kinase kinase kinase 9 (Homo sapiens) (UniProt P80192); conditions: Compound concentration 100.0 nM
[25] = molecular target: Histamine H3 receptor (Homo sapiens) (UniProt Q9Y5N1); conditions: Compound concentration 10.0 uM
[26] = molecular target: Casein kinase II subunit alpha (Homo sapiens) (UniProt P68400); conditions: Compound concentration 100.0 nM
[27] = test system: Epidermal growth factor receptor (Homo sapiens), P00533 [G719S]; conditions: Compound concentration 100.0 nM
[28] = molecular target: Homeodomain-interacting protein kinase 2 (Homo sapiens) (UniProt Q9H2X6); conditions: Compound concentration 100.0 nM
[29] = molecular target: Homeodomain-interacting protein kinase 3 (Homo sapiens) (UniProt Q9H422); conditions: Compound concentration 100.0 nM
[30] = molecular target: Fibroblast growth factor receptor 3 (Homo sapiens) (UniProt P22607); conditions: Compound concentration 100.0 nM
[31] = molecular target: Serine/threonine-protein kinase Nek11 (Homo sapiens) (UniProt Q8NG66); conditions: Compound concentration 100.0 nM
[32] = molecular target: SNF-related serine/threonine-protein kinase (Homo sapiens) (UniProt Q9NRH2); conditions: Compound concentration 100.0 nM
[33] = molecular target: Serine/threonine-protein kinase 10 (Homo sapiens) (UniProt O94804); conditions: Compound concentration 100.0 nM
[34] = molecular target: Phosphatidylinositol 3-kinase C2 domain-containing subunit gamma (Homo sapiens) (UniProt O75747); conditions: Compound concentration 100.0 nM
[35] = molecular target: Vascular endothelial growth factor receptor 3 (Homo sapiens) (UniProt P35916); conditions: Compound concentration 100.0 nM
[36] = molecular target: Activin receptor type-1-like (Homo sapiens) (UniProt P37023); conditions: Compound concentration 100.0 nM
Chain of Activin receptor type-1-like (Homo sapiens) (P37023 whole entry): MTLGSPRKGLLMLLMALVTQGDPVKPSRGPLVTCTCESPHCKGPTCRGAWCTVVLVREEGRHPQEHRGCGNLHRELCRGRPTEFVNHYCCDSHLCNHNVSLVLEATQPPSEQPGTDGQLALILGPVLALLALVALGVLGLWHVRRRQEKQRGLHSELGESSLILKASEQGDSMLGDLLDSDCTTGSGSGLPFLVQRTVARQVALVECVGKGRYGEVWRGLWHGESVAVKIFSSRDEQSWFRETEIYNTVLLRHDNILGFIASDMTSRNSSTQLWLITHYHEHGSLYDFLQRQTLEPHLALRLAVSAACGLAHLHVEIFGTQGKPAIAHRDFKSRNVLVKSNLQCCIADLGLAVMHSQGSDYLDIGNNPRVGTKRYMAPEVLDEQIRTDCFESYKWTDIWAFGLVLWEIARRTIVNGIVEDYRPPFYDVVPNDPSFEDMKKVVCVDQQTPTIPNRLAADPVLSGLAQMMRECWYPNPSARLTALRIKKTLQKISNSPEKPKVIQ

[37] = molecular target: Cyclin-dependent kinase 7 (Homo sapiens) (UniProt P50613); conditions: Compound concentration 100.0 nM
[38] = molecular target: Hormonally up-regulated neu tumor-associated kinase (Homo sapiens) (UniProt P57058); conditions: Compound concentration 100.0 nM
[39] = molecular target: Receptor-interacting serine/threonine-protein kinase 2 (Homo sapiens) (UniProt O43353); conditions: Compound concentration 100.0 nM
[40] = molecular target: Insulin receptor (Homo sapiens) (UniProt P06213); conditions: Compound concentration 100.0 nM
[41] = molecular target: Beta-2 adrenergic receptor (Homo sapiens) (UniProt P07550); conditions: Compound concentration 10.0 uM
[42] = molecular target: Phosphatidylinositol 4,5-bisphosphate 3-kinase catalytic subunit delta isoform (Homo sapiens) (UniProt O00329); conditions: Compound concentration 100.0 nM
Chain of Phosphatidylinositol 4,5-bisphosphate 3-kinase catalytic subunit delta isoform (Homo sapiens) (O00329 whole entry, canonical isoform): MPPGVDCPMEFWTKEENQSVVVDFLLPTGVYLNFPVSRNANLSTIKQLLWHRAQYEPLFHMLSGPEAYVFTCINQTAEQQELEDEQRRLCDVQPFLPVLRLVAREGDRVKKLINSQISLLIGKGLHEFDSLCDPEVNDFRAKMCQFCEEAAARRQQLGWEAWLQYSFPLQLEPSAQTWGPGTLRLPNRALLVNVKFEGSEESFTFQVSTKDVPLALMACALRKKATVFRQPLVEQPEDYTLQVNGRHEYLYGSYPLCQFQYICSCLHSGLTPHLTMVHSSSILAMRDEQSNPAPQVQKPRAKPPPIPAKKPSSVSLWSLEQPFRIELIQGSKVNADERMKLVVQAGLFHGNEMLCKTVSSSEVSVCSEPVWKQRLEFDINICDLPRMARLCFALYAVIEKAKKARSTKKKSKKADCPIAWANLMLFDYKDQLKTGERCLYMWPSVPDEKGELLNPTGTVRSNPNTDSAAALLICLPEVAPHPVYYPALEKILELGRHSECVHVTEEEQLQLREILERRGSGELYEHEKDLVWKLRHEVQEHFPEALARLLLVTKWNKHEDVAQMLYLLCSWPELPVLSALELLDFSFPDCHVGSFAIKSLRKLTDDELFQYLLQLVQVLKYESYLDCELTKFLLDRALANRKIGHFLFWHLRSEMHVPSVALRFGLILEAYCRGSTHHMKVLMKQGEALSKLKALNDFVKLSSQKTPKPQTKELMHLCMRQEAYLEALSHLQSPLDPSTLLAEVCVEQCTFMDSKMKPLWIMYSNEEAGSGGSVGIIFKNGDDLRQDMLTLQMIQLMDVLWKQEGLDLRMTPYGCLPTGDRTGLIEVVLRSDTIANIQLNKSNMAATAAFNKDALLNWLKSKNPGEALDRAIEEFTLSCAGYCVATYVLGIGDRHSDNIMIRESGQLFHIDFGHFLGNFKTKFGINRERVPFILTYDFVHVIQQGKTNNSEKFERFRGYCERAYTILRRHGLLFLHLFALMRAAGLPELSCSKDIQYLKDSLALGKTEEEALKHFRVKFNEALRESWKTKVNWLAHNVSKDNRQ

[43] = molecular target: Serine/threonine-protein kinase WNK3 (Homo sapiens) (UniProt Q9BYP7); conditions: Compound concentration 100.0 nM
[44] = molecular target: Aurora kinase C (Homo sapiens) (UniProt Q9UQB9); conditions: Compound concentration 100.0 nM
Chain of Aurora kinase C (Homo sapiens) (Q9UQB9 whole entry): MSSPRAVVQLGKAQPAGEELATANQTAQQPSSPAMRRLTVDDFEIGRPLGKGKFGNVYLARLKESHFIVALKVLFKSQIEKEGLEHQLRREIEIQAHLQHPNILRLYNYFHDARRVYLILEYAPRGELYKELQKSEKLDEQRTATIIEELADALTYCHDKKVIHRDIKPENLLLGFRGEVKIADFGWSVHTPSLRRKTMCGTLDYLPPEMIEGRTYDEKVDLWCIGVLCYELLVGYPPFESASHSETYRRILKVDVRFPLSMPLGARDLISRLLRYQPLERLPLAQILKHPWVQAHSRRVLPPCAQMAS

[45] = molecular target: Alpha-1D adrenergic receptor (Homo sapiens) (UniProt P25100); conditions: Compound concentration 10.0 uM

Chain of Serine/threonine-protein kinase TAO2 (Homo sapiens) (Q9UL54 whole entry): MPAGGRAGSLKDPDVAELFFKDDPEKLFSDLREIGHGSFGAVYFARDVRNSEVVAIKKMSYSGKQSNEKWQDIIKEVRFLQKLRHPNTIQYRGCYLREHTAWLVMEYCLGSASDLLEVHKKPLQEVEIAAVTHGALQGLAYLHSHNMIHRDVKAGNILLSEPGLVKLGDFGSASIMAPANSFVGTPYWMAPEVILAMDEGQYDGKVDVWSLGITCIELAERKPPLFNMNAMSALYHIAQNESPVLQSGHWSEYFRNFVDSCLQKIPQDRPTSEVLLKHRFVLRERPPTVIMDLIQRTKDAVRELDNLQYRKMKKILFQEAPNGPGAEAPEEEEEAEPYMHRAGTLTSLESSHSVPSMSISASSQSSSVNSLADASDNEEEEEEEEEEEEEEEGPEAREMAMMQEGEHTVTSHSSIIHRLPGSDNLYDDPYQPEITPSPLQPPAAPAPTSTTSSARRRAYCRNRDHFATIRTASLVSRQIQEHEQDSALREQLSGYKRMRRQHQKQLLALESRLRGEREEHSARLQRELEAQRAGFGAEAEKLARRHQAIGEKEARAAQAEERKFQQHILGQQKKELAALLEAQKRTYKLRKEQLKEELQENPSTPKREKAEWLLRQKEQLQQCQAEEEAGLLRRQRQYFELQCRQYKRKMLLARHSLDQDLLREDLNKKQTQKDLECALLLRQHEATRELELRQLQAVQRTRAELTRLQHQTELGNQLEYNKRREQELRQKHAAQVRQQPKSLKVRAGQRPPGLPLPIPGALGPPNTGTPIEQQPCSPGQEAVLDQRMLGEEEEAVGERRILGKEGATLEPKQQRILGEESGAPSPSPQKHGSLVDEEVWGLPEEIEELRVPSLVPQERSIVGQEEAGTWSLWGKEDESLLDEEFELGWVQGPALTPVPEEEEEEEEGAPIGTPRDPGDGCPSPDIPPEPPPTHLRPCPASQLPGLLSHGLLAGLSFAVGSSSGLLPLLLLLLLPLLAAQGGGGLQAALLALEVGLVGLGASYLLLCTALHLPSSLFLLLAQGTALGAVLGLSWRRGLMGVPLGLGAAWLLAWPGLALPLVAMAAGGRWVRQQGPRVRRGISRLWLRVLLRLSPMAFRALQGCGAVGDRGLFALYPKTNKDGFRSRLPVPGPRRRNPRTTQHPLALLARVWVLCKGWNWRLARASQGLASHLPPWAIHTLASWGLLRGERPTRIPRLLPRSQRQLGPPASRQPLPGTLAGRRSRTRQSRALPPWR

`O=C(NCCCC1CCCCC1)c1ccc(CNC(=O)c2cnn(-c3ccccc3)c2C(F)(F)F)cc1` [SR-321] was tested. Which residual activity [1] did it give?
Its residual activity is 100%.

And the inhibition [2]?
The inhibition was 0.18%.

What about the residual activity [3] of the same compound?
Its residual activity is 89%.

And the residual activity [4]?
Its residual activity is 76%.

And the residual activity [5]?
The residual activity was 100%.

What about the residual activity [6] of the same compound?
The residual activity was 100%.

And the residual activity [7]?
Its residual activity is 100%.

And the residual activity [8]?
Its residual activity is 58%.

And the residual activity [9]?
The residual activity was 57%.

What about the residual activity [10] of the same compound?
The residual activity was 93%.

What about the residual activity [11] of the same compound?
Its residual activity is 100%.

And the residual activity [12]?
Its residual activity is 93%.

And the residual activity [13]?
Its residual activity is 90%.

What about the residual activity [14] of the same compound?
Its residual activity is 92%.

And the residual activity [15]?
Its residual activity is 95%.

What about the residual activity [16] of the same compound?
Its residual activity is 89%.

And the residual activity [17]?
Its residual activity is 97%.

And the residual activity [18]?
The residual activity was 100%.

What about the residual activity [19] of the same compound?
Its residual activity is 86%.

And the residual activity [20]?
The residual activity was 99%.

What about the residual activity [21] of the same compound?
Its residual activity is 100%.

And the residual activity [22]?
Its residual activity is 75%.

And the residual activity [23]?
Its residual activity is 100%.

And the residual activity [24]?
Its residual activity is 100%.

What about the inhibition [25] of the same compound?
Its inhibition is 9.12%.

And the residual activity [26]?
Its residual activity is 94%.

What about the residual activity [27] of the same compound?
Its residual activity is 80%.

And the residual activity [28]?
Its residual activity is 100%.

What about the residual activity [29] of the same compound?
Its residual activity is 88%.

What about the residual activity [30] of the same compound?
The residual activity was 100%.

What about the residual activity [31] of the same compound?
Its residual activity is 100%.

What about the residual activity [32] of the same compound?
The residual activity was 100%.

And the residual activity [33]?
Its residual activity is 100%.

And the residual activity [34]?
The residual activity was 100%.

And the residual activity [35]?
Its residual activity is 100%.

And the residual activity [36]?
The residual activity was 100%.

And the residual activity [37]?
The residual activity was 100%.

What about the residual activity [38] of the same compound?
The residual activity was 100%.

And the residual activity [39]?
The residual activity was 97%.

What about the residual activity [40] of the same compound?
The residual activity was 100%.

What about the inhibition [41] of the same compound?
The inhibition was 12.4%.

And the residual activity [42]?
Its residual activity is 100%.

What about the residual activity [43] of the same compound?
Its residual activity is 100%.

What about the residual activity [44] of the same compound?
The residual activity was 100%.

And the inhibition [45]?
Its inhibition is 10.1%.

How did the residual activity [1] turn out when `Nc1c(C(=O)NCc2ccc(C(=O)NCCCC3CCCCC3)cc2)cnn1-c1ccccc1` [SR-318] was run?
Its residual activity is 100%.

And the inhibition [2]?
The inhibition was 7.75%.

And the residual activity [3]?
Its residual activity is 100%.

And the residual activity [4]?
The residual activity was 100%.

What about the residual activity [5] of the same compound?
Its residual activity is 93%.

What about the residual activity [6] of the same compound?
The residual activity was 99%.

And the residual activity [7]?
The residual activity was 94%.

What about the residual activity [8] of the same compound?
Its residual activity is 100%.

And the residual activity [9]?
The residual activity was 39%.

And the residual activity [10]?
Its residual activity is 99%.

What about the residual activity [11] of the same compound?
The residual activity was 100%.

What about the residual activity [12] of the same compound?
The residual activity was 100%.

And the residual activity [13]?
Its residual activity is 93%.

And the residual activity [14]?
The residual activity was 90%.

And the residual activity [15]?
Its residual activity is 81%.

What about the residual activity [16] of the same compound?
Its residual activity is 96%.

What about the residual activity [17] of the same compound?
The residual activity was 100%.

And the residual activity [18]?
Its residual activity is 100%.

What about the residual activity [19] of the same compound?
The residual activity was 100%.

And the residual activity [20]?
The residual activity was 96%.

What about the residual activity [21] of the same compound?
The residual activity was 100%.

What about the residual activity [22] of the same compound?
Its residual activity is 100%.

What about the residual activity [23] of the same compound?
Its residual activity is 100%.

And the residual activity [24]?
Its residual activity is 96%.

What about the inhibition [25] of the same compound?
Its inhibition is -2.98%.

What about the residual activity [26] of the same compound?
Its residual activity is 70%.

And the residual activity [27]?
The residual activity was 84%.

And the residual activity [28]?
The residual activity was 100%.

And the residual activity [29]?
The residual activity was 100%.

What about the residual activity [30] of the same compound?
The residual activity was 100%.

And the residual activity [31]?
Its residual activity is 94%.

What about the residual activity [32] of the same compound?
Its residual activity is 91%.

And the residual activity [33]?
Its residual activity is 100%.

What about the residual activity [34] of the same compound?
The residual activity was 100%.

And the residual activity [35]?
Its residual activity is 100%.

What about the residual activity [36] of the same compound?
The residual activity was 100%.

And the residual activity [37]?
Its residual activity is 100%.

What about the residual activity [38] of the same compound?
The residual activity was 100%.

What about the residual activity [39] of the same compound?
The residual activity was 96%.

What about the residual activity [40] of the same compound?
The residual activity was 100%.

And the inhibition [41]?
Its inhibition is 6.62%.

What about the residual activity [42] of the same compound?
The residual activity was 94%.

What about the residual activity [43] of the same compound?
Its residual activity is 92%.

What about the residual activity [44] of the same compound?
Its residual activity is 100%.

What about the inhibition [45] of the same compound?
Its inhibition is 22%.
